Results as given in patent US9624214B2, “Amino-substituted imidazo[1,2-a]pyridinecarboxamides and their use” (BAYER PHARMA AKTIENGESELLSCHAFT, priority 2012, dated 2017).
Where a name gives a salt, the structure may show the parent alone.

Molecular target: T1, recombinant guanylate cyclase reporter cell line (Rattus norvegicus, UniProt P19686+P20595)
T1 construct: expressed in transfected cells
T1 sequence (P20595 1-619): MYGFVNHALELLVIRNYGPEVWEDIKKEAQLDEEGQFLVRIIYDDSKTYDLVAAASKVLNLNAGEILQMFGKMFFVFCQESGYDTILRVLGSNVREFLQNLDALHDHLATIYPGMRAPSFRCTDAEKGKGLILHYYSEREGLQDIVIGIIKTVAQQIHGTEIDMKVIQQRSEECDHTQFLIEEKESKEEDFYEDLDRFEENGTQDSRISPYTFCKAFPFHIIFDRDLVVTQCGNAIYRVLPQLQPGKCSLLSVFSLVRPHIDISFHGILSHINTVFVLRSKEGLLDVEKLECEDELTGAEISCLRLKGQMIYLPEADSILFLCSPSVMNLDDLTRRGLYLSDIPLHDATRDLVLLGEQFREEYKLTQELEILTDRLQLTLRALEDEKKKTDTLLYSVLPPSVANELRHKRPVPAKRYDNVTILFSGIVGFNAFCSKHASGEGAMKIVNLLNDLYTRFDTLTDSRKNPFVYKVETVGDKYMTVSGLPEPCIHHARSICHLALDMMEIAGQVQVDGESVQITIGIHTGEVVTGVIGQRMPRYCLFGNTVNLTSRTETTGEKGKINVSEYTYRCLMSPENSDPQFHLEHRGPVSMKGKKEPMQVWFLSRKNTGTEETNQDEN
T1 sequence (P19686 1-690): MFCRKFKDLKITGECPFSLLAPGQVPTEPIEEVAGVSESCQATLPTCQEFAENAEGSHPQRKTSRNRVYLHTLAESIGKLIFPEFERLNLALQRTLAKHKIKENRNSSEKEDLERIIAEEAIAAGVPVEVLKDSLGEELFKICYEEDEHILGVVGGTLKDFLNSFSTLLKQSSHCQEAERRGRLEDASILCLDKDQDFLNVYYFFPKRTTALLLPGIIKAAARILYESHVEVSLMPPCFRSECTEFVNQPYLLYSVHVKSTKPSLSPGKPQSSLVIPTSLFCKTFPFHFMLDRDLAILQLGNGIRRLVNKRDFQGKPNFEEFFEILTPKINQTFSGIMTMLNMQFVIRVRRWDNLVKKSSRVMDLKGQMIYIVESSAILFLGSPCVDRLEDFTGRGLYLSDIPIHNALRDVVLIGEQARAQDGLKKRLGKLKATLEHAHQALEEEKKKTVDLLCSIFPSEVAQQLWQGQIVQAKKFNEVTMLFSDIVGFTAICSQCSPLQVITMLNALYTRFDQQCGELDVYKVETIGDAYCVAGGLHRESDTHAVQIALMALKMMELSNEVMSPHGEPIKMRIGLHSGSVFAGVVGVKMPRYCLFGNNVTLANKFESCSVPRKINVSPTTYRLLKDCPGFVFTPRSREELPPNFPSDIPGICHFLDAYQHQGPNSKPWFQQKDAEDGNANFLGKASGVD
Assay: B-2. Action on recombinant guanylate cyclase reporter cell line
Type: cell-based
Settings: MEC = minimal effective concentration; in some cases mean values from individual determinations
Procedure, shortened: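 Read-out: MEC (minimal effective concentration) in cells. Reporter line carries recombinant sGC. Some values are averages of single runs.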

MEC | Structure (SMILES)
3.00 µM | Cc1nc2c(OCc3c(F)cccc3F)cccn2c1C(=O)NC(C)(C)C(C)(C)N [Example 141, N-(3-Amino-2,3-dimethylbutan-2-yl)-8-[(2,6-difluorobenzyl)oxy]-2-methylimidazo[1,2-a]pyridine-3-carboxamide]
0.30 µM | Cc1nc2c(OCc3c(F)cccc3F)cccn2c1C(=O)NCCN1CCC(F)(F)C1 [Example 143, 8-[(2,6-difluorobenzyl)oxy]-N-[2-(3,3-difluoropyrrolidin-l-yl)ethyl]-2-methylimidazo[1,2-a]pyridine-3-carboxamide]
3.00 µM | COCCNCCNC(=O)c1c(C)nc2c(OCc3c(F)cccc3F)cccn12 [Example 144, 8-[(2,6-difluorobenzyl)oxy]-N-{2-[(2-methoxyethyl)amino]ethyl}-2-methylimidazo[1,2-a]pyridine-3-carboxamide]
3.00 µM | Cc1nc2c(OCc3c(F)cccc3F)cccn2c1C(=O)NCC(C)(C)N(C)C [Example 145, 8-[(2,6-difluorobenzyl)oxy]-N-[2-(dimethylamino)-2-methylpropyl]-2-methylimidazo[1,2-a]pyridine-3-carboxamide]
1.00 µM | Cc1nc2c(OCc3c(F)cccc3F)cccn2c1C(=O)NCCN(CC(F)F)C1CC1 [Example 146, N-{2-[cyclopropyl(2,2-difluoroethyl)amino]ethyl}-8-[(2,6-difluorobenzyl)oxy]-2-methylimidazo[1,2-a]-pyridine-3-carboxamide]
1.00 µM | Cc1nc2c(OCc3c(F)cccc3F)cc(Cl)cn2c1C(=O)NCC(C)(C)N1CCCC1 [Example 148, 6-chloro-8-[(2,6-difluorobenzyl)oxy]-2-methyl-N-[2-methyl-2-(pyrrolidin-1-yl)-propyl]imidazo[1,2-a)pyridine-3-carboxamide]
1.00 µM | Cc1nc2c(OCc3c(F)cccc3F)cc(Cl)cn2c1C(=O)NCCNC(C)C [Example 149, 6-chloro-8-[(2,6-difluorobenzyl)oxy]-N-[2-(isopropylamino)ethyl]-2-methylimidazo[1,2-a]-pyridine-3-carboxamide]
0.10 µM | Cc1nc2c(OCc3c(F)cccc3F)cc(Cl)cn2c1C(=O)NCCN(CC(F)F)C1CC1 [Example 150, 6-chloro-N-{2-[cyclopropyl(2,2-difluoroethyl)-amino]ethyl}-8-[(2,6-difluorobenzyl)oxy]-2-methylimidazo[1,2-a]pyridine-3-carboxamide]
0.10 µM | Cc1nc2c(OCc3c(F)cccc3F)cc(Cl)cn2c1C(=O)NCCN1CCC(F)(F)CC1 [Example 151, 6-chloro-8-[(2,6-difluorobenzyl)oxy]-N-[2-(4,4-difluoropiperidin-1-yl)ethyl]-2-methylimidazo[1,2-a]pyridine-3-carboxamide]
1.00 µM | Cc1nc2c(OCc3c(F)cccc3F)cc(Cl)cn2c1C(=O)NCCN1CCN(C(C)C)CC1 [Example 152, 6-chloro-8-[(2,6-difluorobenzyl)oxy]-N-[2-(4-isopropylpiperazin-1-yl)ethyl]-2-methyl-imidazo[1,2-a]pyridine-3-carboxamide]
1.00 µM | COCCNCCNC(=O)c1c(C)nc2c(OCc3c(F)cccc3F)cc(Cl)cn12 [Example 153, 6-chloro-8-[(2,6-difluorobenzyl)oxy]-N-{2-[(2-methoxyethyl)amino]ethyl}-2-methylimidazo[1,2-a]pyridine-3-carboxamide]
1.00 µM | Cc1nc2c(OCc3c(F)cccc3F)cc(Cl)cn2c1C(=O)NCCN1CCN(C)CC1 [Example 154, 6-chloro-8-[(2,6-difluorobenzyl)oxy]-2-methyl-N-[2-(4-methylpiperazin-1-yl)ethyl]imidazo[1,2-a]pyridine-3-carboxamide]
0.30 µM | Cc1nc2c(OCc3c(F)cccc3F)cc(Cl)cn2c1C(=O)NCC1(N)CCC1 [Example 155, N-[(1-aminocyclobutyl)methyl]-6-chloro-8-[(2,6-difluorobenzyl)oxy]-2-methylimidazo[1,2-a]-pyridine-3-carboxamide trifluoroacetate]
3.00 µM | Cc1nc2c(OCc3c(F)cccc3F)cc(Cl)cn2c1C(=O)NCCN1CC(N2CCCC2)C1 [Example 156, 6-chloro-8-[(2,6-difluorobenzyl)oxy]-2-methyl-N-{2-[3-(pyrrolidin-1-yl)azetidin-1-yl]ethyl}-imidazo[1,2-a]pyridine-3-carboxamide]
0.30 µM | Cc1nc2c(OCc3c(F)cccc3F)cc(Cl)cn2c1C(=O)NCCN1C[C@@H](C)O[C@@H](C)C1 [Example 158, 6-chloro-8-[(2,6-difluorobenzyl)oxy]-N-{2-[(2R,6S)-2,6-dimethylmorpholin-4-yl]ethyl}-2-methylimidazo[1,2-a]pyridine-3-carboxamide]
1.00 µM | Cc1cc(OCc2c(F)cccc2F)c2nc(C)c(C(=O)NC3CCCC(N)C3)n2c1 (centres unmarked) [Example 160, N-(3-aminocyclohexyl)-8-[(2,6-difluorobenzyl)oxy]-2,6-dimethylimidazo[1,2-a]-pyridine-3-carboxamide]
3.00 µM | Cc1cc(OCc2c(F)cccc2F)c2nc(C)c(C(=O)NCCN3CC(N4CCCC4)C3)n2c1 [Example 162, 8-[(2,6-difluorobenzyl)oxy]-2,6-dimethyl-N-{2-[3-(pyrrolidin-1-yl)azetidin-1-yl]ethyl}imidazo[1,2-a]pyridine-3-carboxamide]
0.30 µM | Cc1cc(OCc2c(F)cccc2F)c2nc(C)c(C(=O)NCCN3CCC(F)(F)CC3)n2c1 [Example 163, 8-[(2,6-difluorobenzyl)oxy]-N-[2-(4,4-difluoro-piperidin-1-yl)ethyl]-2,6-dimethylimidazo[1,2-a]pyridine-3-carboxamide]
0.10 µM | Cc1cc(OCc2c(F)cccc2F)c2nc(C)c(C(=O)NCCN(CC(F)F)C3CC3)n2c1 [Example 164, N-{2-[cyclopropyl(2,2-difluoroethyl)amino]ethyl}-8-[(2,6-difluorobenzyl)oxy]-2,6-dimethylimidazo[1,2-a]-pyridine-3-carboxamide]
0.10 µM | Cc1cc(OCc2c(F)cccc2F)c2nc(C)c(C(=O)NCC3(N)CCC3)n2c1 [Example 165, N-[(1-aminocyclobutyl)methyl]-8-[(2,6-difluorobenzyl)oxy]-2,6-dimethylimidazo[1,2-a]-pyridine-3-carboxamide]
1.00 µM | Cc1cc(OCc2c(F)cccc2F)c2nc(C)c(C(=O)NCCN3C[C@@H](C)O[C@@H](C)C3)n2c1 [Example 167, 8-[(2,6-difluorobenzyl)oxy]-N-{2-[(2R,6S)-2,6-dimethylmorpholin-4-yl]ethyl}-2,6-dimethyl-imidazo[1,2-a]pyridine-3-carboxamide]
1.00 µM | Cc1nc2c(OCc3c(F)cccc3F)cccn2c1C(=O)NCCN1CCN(C2CC2)CC1 [Example 168, N-[2-(4-Cyclopropylpiperazin-1-yl)ethyl]-8-[(2,6-difluorobenzyl)oxy]-2-methylimidazo[1,2-a]-pyridine-3-carboxamide]
1.65 µM | Cc1nc2c(OCc3c(F)cccc3F)cccn2c1C(=O)NCCNCC(F)F [Example 169, 8-[(2,6-difluorobenzyl)oxy]-N-{2-[(2,2-difluoroethyl)amino]ethyl}-2-methylimidazo[1,2-a]pyridine-3-carboxamide]
3.00 µM | Cc1nc2c(OCc3c(F)cccc3F)cccn2c1C(=O)N[C@H](C)CN1CCOCC1 [Example 170, 8-[(2,6-difluorobenzyl)oxy]-2-methyl-N-[(2R)-1-(morpholin-4-yl)propan-2-yl]imidazo[1,2-a]-pyridine-3-carboxamide]
1.00 µM | Cc1nc2c(OCc3c(F)cccc3F)cccn2c1C(=O)N[C@@H](C)CN1CCOCC1 [Example 171, 8-[(2,6-difluorobenzyl)oxy]-2-methyl-N-[(2S)-1-(morpholin-4-yl)propan-2-yl]imidazo[1,2-a]-pyridine-3-carboxamide]
0.30 µM | Cc1cc(OCc2c(F)cccc2F)c2nc(C)c(C(=O)NC[C@@H]3CCCCN3)n2c1 [Example 172, 8-[(2,6-Difluorobenzyl)oxy]-2,6-dimethyl-N-[(2S)-piperidin-2-ylmethyl]imidazo[1,2-a]pyridine-3-carboxamide]
